Laboratory results taken from patent publication US10975056B2 (GlaxoSmithKline Intellectual Property Development Limited, priority 2016, dated 2021).
Counter-ions that a name gives are not always drawn.

Tests used:
DNMT1 = DNMT1 (Homo sapiens, UniProt P26358); assay: DNMT1 biochemical activity, breaklight assay and/or SPA assay; conditions: binned activity in either the breaklight or the SPA assay; for IC50: read-out: DNMT1 BioChemical (pIC50 category) (converted)
Experimental: DNMT1 breaklight in vitro assays were conducted in a total volume of 50 μl in a standard 384 well format, using black non-binding surface microplates (Corning 3575). […] Negative control wells used 5 μl of DNMT1 and 5 μl of oligonucleotide but 0 μM SAM. All reagents were made up in 1× assay buffer (20 mM Tris pH 6.8, 25 mM NaCl, 0.5 mM MgCl2, 0.01% Triton X100 and 1 mM DTT). The reaction was incubated at 26° C. for 45 min and then stopped with the addition of 40 μl detection reagent. Detection reagent, made up in 1× Gla assay buffer (20 mM Tris pH 8.0, 80 mM NaCl, 0.75 mM MgCl2, 0.01% Triton X100 and 1 mM DTT) has a final concentration of 100 μM SAH (Sigma #A9384) and 0.0008 units/μl Gla1 restriction endonuclease (Sibenzyme #E494). Following addition of the detection reagent the plate was incubated in the dark at room temperature for 5 hr. Fluorescence intensity was then measured on the PHERAstar FS (BMG Labtech) at Ex 485 nm and Em 520 nm, with a gain of 400 and an integration time of 100 ms.
Biochemical activity of DNMT1 analyzed using SPA technology. Plates (Griener 784075) were pre-stamped with 100 nL/well of compound (11-point, 3-fold serial dilution). […] Low control wells contained 5 μL of buffer instead of enzyme. Following a 40 minute incubation, the reaction was quenched upon the addition of 10 μL of stop mixture containing 1 mM SAM (Sigma A7007) and 2 mg/mL PEI beads (Perkin Elmer RPNQ0098). Plates were sealed, centrifuged for 1 min and then read on a Viewlux (Perkin Elmer) using the 613 nm emission filter/300 s read time following a 30 minute dark adapt. Assay conditions prior to quench consisted of 40 nM DNMT1 (601-1600, produced internally), 100 nM 3H-SAM (American Radiolabeled Chemicals ART 0288), 900 nM SAM (New England BioLabs B9003S) and 200 nM hemi methylated DNA oligonucleotide (synthesized at Integrated DNA Technologies, 5′-[…]-3′) in 50 mM HEPES (pH 8.0), 2 mM MgCl2, 1 mM DTT, 0.01% NP-40 and 0.01% BSA.
Comments • 1. […] Where a field is empty, the compound was not tested in that assay.

[1] = system: erythroid progenitor cells (EPCs); assay: Fetal hemoglobin (HbF) ELISA in day 7 erythroid progenitor cells; format: cell-based, human; conditions: Homo sapiens, Erythroid progenitor cell, HbF ELISA, day 7 EPCs, 5 days; read-out: EPC ELISA (pEC50 category) (converted)
Experimental: Day 7 EPCs were cultured in duplicate plates with serially diluted Compound A for 5 days at 37° C. Wells were then analyzed for either induction of fetal hemoglobin (HbF,HbF ELISA) or cell growth (Cell Titer-Glo). In both cases, signal was normalized to vehicle-control treated cells.
Culture, Expansion, and Characterization of Day 7 Erythroid Progenitor Cells (EPC)s
All donors provided written informed consent for use of their samples, and the collection and use of the samples received institutional review board approval. All cryopreserved human bone marrow CD34+ cells used here were obtained from AlICells (Emeryville, Calif.) and were generally from different donors. The CD34+ cells were cultured to generate EPCs at day 7. Briefly, 1 million cells were cultured in 5% CO2, 5% O2 at 37° C. in H3000 Stemspan media (StemCell Technologies Vancouver, BC, Canada) supplemented with 2 mM L-glutamine, 40 μg/mL human low-density lipoproteins (StemCell Technologies), 10 ng/mL recombinant human (rh) interleukin IL-3 (R&D Systems, Minneapolis, Minn.), 100 ng/mL rh stem cell factor (R&D Systems), and 0.5 U/mL rh erythropoietin (Invitrogen, Grand Island, N.Y.). Cells were split and refed on day 4 with complete culture media described above and harvested on day 7 for evaluation of erythroid marker expression and assessment of γ-globin induction. Day 7 EPCs were then frozen in liquid nitrogen at 5 to 10 million cells/mL in 95% fetal bovine serum (FBS; Invitrogen) with 5% DMSO for subsequent use.
At the time of compound treatment, frozen day 7 EPCs prepared as described above were thawed, washed once and re-suspended in complete culture media as described above with the exception of an increase of rhEPO to 3 U/mL. Cells were counted and diluted to […] for plating into assay plates. Cells were then dispensed, at 30 μL per well with Multidrop™ Combi Reagent Dispenser (Thermo Scientific), into 384-well cell culture plates into which test compounds were pre-dispensed at 100 nL/well. Black Clear Bottom (Greiner Bio-One; 781090) and White (Greiner Bio-One; 781080) plates were used for ELISA and Cell Titer-Glo assays, respectively. The final cell density in the assays is 1,000 cells per well, with final compound concentrations between 33 nM (highest) and […] (lowest) for the 22-points serial dilution.
Fetal Hemoglobin (HbF) ELISA
Coating anti-HbF Ab (Bethyl Lab; cat. A80-136A) was diluted by 100-fold in the coating buffer (0.05 M carbonate-bicarbonate, pH 9.6), and then 20 μL/well was added to a 384-well MaxiSorp ELISA plate (Thermo Fisher; cat. 464718). After 1 hour incubation at room temperature, the plates were washed twice with ELISA washing buffer (50 mM Tris, 0.05% Tween 20, pH 8.0) with an EL406 plate washer (BioTek, Winooski, Vt.). Then, 40 μL/well of blocking buffer consisting of 50 mM Tris and 1% BSA (pH 8.0) was added to the plate and stored at 4° C. with cover sheet overnight, or until time of the assay. The coated ELISA plates were stable for up to 30 days at 4° C. On the day of assay, the plates were washed twice with ELISA washing buffer prior to addition of cell lysate.
After 5 days at 37° C. with 5% CO2 cell culture plates for ELISA assay were put into −80° C. freezer for a minimum of 2 hours. After thawing at room temperature, 30 μL of cell lysis buffer (Invitrogen; cat. FNN0011, supplemented with 1× protease inhibitor) was added to each well and the resulting cell lysate was mixed eight times with a Cybi-Well (Jena, Germany) pipettor. Following the mixing procedure, 20 μL/well of lysate was transferred to the coated ELISA plates described above followed by a 1 hour incubation at room temperature. The ELISA assay plates were washed three times with ELISA wash buffer. 20 μL per well of 1:75,000 to 100,000 diluted horseradish peroxidase (HRP) conjugate detection antiHbF Ab (Bethyl Labs; cat. A80-136P, diluted in 50 mM Tris [pH 8.0], 1% BSA, 0.05% Tween-20) was then added. […]

DNMT1, sequence (P26358 whole entry, looked up): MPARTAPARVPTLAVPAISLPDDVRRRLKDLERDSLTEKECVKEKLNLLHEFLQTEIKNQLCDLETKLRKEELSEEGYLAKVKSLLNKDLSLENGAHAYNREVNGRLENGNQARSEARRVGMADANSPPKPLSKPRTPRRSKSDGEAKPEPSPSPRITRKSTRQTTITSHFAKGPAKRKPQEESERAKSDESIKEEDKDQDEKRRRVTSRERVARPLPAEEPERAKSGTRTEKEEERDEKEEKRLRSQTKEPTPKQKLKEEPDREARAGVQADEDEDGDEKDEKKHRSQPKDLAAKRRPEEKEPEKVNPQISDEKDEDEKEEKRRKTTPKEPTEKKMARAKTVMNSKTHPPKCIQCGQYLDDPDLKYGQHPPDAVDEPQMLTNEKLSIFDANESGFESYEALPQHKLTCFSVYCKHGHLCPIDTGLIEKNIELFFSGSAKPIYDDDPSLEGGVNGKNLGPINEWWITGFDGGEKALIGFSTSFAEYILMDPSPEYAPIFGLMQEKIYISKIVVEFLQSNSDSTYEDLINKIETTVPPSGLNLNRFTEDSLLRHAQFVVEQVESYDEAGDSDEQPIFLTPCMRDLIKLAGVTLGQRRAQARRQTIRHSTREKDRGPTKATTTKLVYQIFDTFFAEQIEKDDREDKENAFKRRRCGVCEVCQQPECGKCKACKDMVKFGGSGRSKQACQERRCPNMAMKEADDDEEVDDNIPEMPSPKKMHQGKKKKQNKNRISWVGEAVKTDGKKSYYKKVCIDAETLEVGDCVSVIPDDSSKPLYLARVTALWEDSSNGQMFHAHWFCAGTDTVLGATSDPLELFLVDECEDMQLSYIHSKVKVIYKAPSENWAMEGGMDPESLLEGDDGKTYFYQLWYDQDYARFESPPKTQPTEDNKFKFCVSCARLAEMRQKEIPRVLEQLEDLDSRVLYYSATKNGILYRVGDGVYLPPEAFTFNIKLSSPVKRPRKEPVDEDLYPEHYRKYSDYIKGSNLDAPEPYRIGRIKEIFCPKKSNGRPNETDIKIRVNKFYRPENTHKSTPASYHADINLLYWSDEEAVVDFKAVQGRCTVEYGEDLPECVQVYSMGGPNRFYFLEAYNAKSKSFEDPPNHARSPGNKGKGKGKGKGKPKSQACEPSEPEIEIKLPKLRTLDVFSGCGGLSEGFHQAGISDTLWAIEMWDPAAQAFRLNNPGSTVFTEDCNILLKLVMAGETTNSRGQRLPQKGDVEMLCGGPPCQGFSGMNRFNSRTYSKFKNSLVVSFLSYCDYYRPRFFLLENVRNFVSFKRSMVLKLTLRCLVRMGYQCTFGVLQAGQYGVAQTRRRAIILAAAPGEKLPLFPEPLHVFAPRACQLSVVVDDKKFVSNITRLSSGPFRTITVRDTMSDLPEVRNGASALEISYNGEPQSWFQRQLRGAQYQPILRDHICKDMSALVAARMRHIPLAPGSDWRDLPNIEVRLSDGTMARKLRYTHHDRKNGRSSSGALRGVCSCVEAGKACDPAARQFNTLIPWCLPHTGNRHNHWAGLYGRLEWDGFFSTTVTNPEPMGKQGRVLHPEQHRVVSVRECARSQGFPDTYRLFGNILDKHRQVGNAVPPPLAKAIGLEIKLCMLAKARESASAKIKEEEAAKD

## CNC1CCCN(c2nc(SC(C(N)=O)c3ccccc3)c(C#N)c(C3CC3)c2C#N)C1 (centres unmarked) [Example 24, 2-((3,5-dicyano-4-cyclopropyl-6-(3-(methylamino)piperidin-1-yl)pyridin-2-yl)thio)-2-phenylacetamide]
DNMT1
  DNMT1 BioChemical (pIC50 category): D (Category D: ≥6.5)
[1]
  EC50: < 316 nM

## CCc1c(C#N)c(SCc2ccc(CNC(C)=O)cc2)nc(N2CCC(N)CC2)c1C#N [Example 156, N-(4-(((6-(4-Aminopiperidin-1-yl)-3,5-dicyano-4-ethylpyridin-2-yl)thio)methyl)benzyl)acetamide, Trifluoroacetic Acid Salt]
DNMT1
  DNMT1 BioChemical (pIC50 category): D (Category D: ≥6.5)
[1]
  EC50: 316 to 1000 nM

## CCc1c(C#N)c(SC(C(N)=O)c2ccccc2)nc(N2CCN(C(=O)C3(N)CCOCC3)CC2)c1C#N (centres unmarked) [Example 141, 2-((6-(4-(4-Aminotetrahydro-2H-pyran-4-carbonyl)piperazin-1-yl)-3,5-dicyano-4-ethylpyridin-2-yl)thio)-2-phenylacetamide, Trifluoroacetic Acid Salt]
DNMT1
  DNMT1 BioChemical (pIC50 category): D (Category D: ≥6.5)
[1]
  EC50: < 316 nM

## CCc1c(C#N)c(SCc2ccc(NC(C)=O)cc2)nc(N(C)C)c1C#N [Example 273]
DNMT1
  IC50: 316 to 1000 nM
[1]
  EC50: 1000 to 31600 nM

## CCc1c(C#N)c(SC(C(N)=O)c2cccc(P(C)(C)=O)c2)nc(N(C)C)c1C#N (centres unmarked) [Example 419, 2-((3,5-Dicyano-6-(dimethylamino)-4-ethylpyridin-2-yl)thio)-2-(3-(dimethylphosphoryl)phenyl)acetamide]
DNMT1
  IC50: 316 to 1000 nM
[1]
  EC50: 1000 to 31600 nM

## CCc1c(C#N)c(SC(C(N)=O)c2ccccc2)nc(N2CCC[C@@H](CNC(=O)C(C)(C)N)C2)c1C#N (stereo partly drawn) [Example 588, 2-amino-N-(((3S)-1-(6-((2-amino-2-oxo-1-phenylethyl)thio)-3,5-dicyano-4-ethylpyridin-2-yl)piperidin-3-yl)methyl)-2-methylpropanamide]
DNMT1
  DNMT1 BioChemical (pIC50 category): D (Category D: ≥6.5)
[1]
  EC50: < 316 nM

## CCc1c(C#N)c(SCc2ccccc2)nc(N2CCC(NC(=O)CN)CC2)c1C#N [Example 94, 2-Amino-N-(1-(6-(benzylthio)-3,5-dicyano-4-ethylpyridin-2-yl)piperidin-4-yl)acetamide, Trifluoroacetic Acid Salt]
DNMT1
  IC50: 316 to 1000 nM
[1]
  EC50: > 31600 nM

## CCc1c(C#N)c(SCc2ccc(N(C)S(C)(=O)=O)cc2)nc(N2CCC(NC(=O)[C@@H](C)N)CC2)c1C#N [Example 584, (R)-2-amino-N-(1-(3,5-dicyano-4-ethyl-6-((4-(N-methylmethylsulfonamido)benzyl)thio)pyridin-2-yl)piperidin-4-yl)propanamide]
DNMT1
  DNMT1 BioChemical (pIC50 category): D (Category D: ≥6.5)
[1]
  EC50: < 316 nM

## CCc1c(C#N)c(SC(C(N)=O)c2ccccc2)nc(N2CCC(NC3CC3)C(F)C2)c1C#N (centres unmarked) [Example 527, 2-((3,5-dicyano-6-(4-(cyclopropylamino)-3-fluoropiperidin-1-yl)-4-ethylpyridin-2-yl)thio)-2-phenylacetamide]
DNMT1
  DNMT1 BioChemical (pIC50 category): D (Category D: ≥6.5)
[1]
  EC50: < 316 nM

## [2H][C@](Sc1nc(N(C)C)c(C#N)c(CC)c1C#N)(C(N)=O)c1ccccc1 [Example 308, (R)-2-((3,5-Dicyano-6-(dimethylamino)-4-ethylpyridin-2-yl)thio)-2-phenylacetamide-2-d]
[1]
  EC50: 316 to 1000 nM

## CCc1c(C#N)c(S[C@@H](C(N)=O)c2ccccc2)nc(N2CCC(N)CC2)c1C#N [Example 412, (R)-2-((6-(4-aminopiperidin-1-yl)-3,5-dicyano-4-ethylpyridin-2-yl)thio)-2-phenylacetamide, Hydrochloride]
[1]
  EC50: < 316 nM

## [2H]C([2H])([2H])N(c1nc(SC(C(N)=O)c2ccccc2)c(C#N)c(CC)c1C#N)C([2H])([2H])[2H] (centres unmarked) [Example 404, 2-((3,5-Dicyano-6-(dimethylamino-d6)-4-ethylpyridin-2-yl)thio)-2-phenylacetamide]
[1]
  EC50: 316 to 1000 nM

## CCc1c(C#N)c(S[C@H](C(N)=O)c2ccccc2)nc(N2CCC(N)CC2)c1C#N [Example 605, (S)-2-((6-(4-aminopiperidin-1-yl)-3,5-dicyano-4-ethylpyridin-2-yl)thio)-2-phenylacetamide, Hydrochloride]
[1]
  EC50: < 316 nM

## CCc1c(C#N)c(SC(C(N)=O)c2ccccc2)nc(N2CCC(NCC3(C)CCC3)CC2)c1C#N (centres unmarked) [Example 466, 2-((3,5-dicyano-4-ethyl-6-(4-(((1-methylcyclobutyl)methyl)amino)piperidin-1-yl)pyridin-2-yl)thio)-2-phenylacetamide]
[1]
  EC50: < 316 nM

## CCc1c(C#N)c(SC(C(N)=O)c2ccccc2)nc(N2CCC(N)CC2)c1C#N (centres unmarked) [Example 143, 2-((6-(4-Aminopiperidin-1-yl)-3,5-dicyano-4-ethylpyridin-2-yl)thio)-2-phenylacetamide]
[1]
  EC50: < 316 nM

## [2H]C(Sc1nc(N(C)C)c(C#N)c(CC)c1C#N)(C(N)=O)c1ccccc1 (centres unmarked) [Example 305, 2-((3,5-Dicyano-6-(dimethylamino)-4-ethylpyridin-2-yl)thio)-2-phenylacetamide-2-d]
[1]
  EC50: 316 to 1000 nM

## CCc1c(C#N)c(SC(C(N)=O)c2ccccc2)nc(N(C)CC(=O)N2CC[C@@H](CO)C2)c1C#N (stereo partly drawn) [Example 652, 2-((3,5-dicyano-4-ethyl-6-((2-((R)-3-(hydroxymethyl)pyrrolidin-1-yl)-2-oxoethyl)(methyl)amino)pyridin-2-yl)thio)-2-phenylacetamide]
[1]
  EC50: < 316 nM
